According to patent US7235299B2, “Beads of a phenolic compound and a method of obtaining same” (Rhodia Chimie, priority 2002, dated 2007):

Assays:
[1] = acrylic acid at 20° C.
[2] = methyl methacrylate at 20° C.

dissolution time in acrylic acid [1]: 10 min
dissolution time in methyl methacrylate [2]: 3 min
Structure (SMILES): Oc1ccc(O)cc1 [crystalline hydroquinone, hydroquinone]
